Read-outs that look alike come from different tables or passages of the source. Marks after values point to notes of the source that are not given here.
How the values were obtained:
[1] = biological target: T1, pancreatic bovine trypsin (Bos taurus, UniProt P00760); test: Inhibition of trypsin induced proteolysis in vitro; format: biochemical; details: for inhibition at 100 µM: read-out: % Trypsin Inh.; for IC50: read-out: IC50 μM Trypsin Inh.; for inhibition at 100 µM / % Trypsin Inh.: % inhibition at 100 μM
T1 construct: purchased Sigma Chemical, Co. (St. Louis, MO, USA)
T1 sequence (P00760 24-246): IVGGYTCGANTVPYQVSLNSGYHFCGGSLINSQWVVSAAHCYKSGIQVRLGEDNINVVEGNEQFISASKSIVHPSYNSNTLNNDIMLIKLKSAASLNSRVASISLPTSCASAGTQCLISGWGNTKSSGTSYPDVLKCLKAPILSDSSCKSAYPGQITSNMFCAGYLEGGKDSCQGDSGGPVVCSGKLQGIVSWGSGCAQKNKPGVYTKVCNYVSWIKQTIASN
Source text: All chemicals, solvents, chemical and biochemical reagents were of analytical grade and purchased from commercial sources (Merck, Merck KGaA, Darmstadt, Germany, Fluka Sigma-Aldrich Laborchemikalien GmbH, Hannover, Germany, Alfa Aesar, Karlsruhe, Germany and Sigma, St. Louis, MO, USA). Soybean lipoxygenase, pancreatic bovine trypsin, sodium linoleate, free radical DPPH and 2,2-azinobis-2-methyl-propanimidamine HCl (AAPH) were obtained from Sigma Chemical, Co. (St. Louis, MO, USA), carrageenin, type K, was commercially available. All starting materials were obtained from commercial sources and used without further purification.
The test was carried out according to a modified Kunitz method. Bovine albumin was used as substrate for trypsin. The reaction mixture consisted of 0.075 mg/mL trypsin (200 μL) and 780 μL of phosphate buffer pH 7.6 (including the tested compounds (20 μL in DMSO, final concentration 100 μM) preincubated at 37 °C for 20 min and then 1 mL of albumin (stock solution 6 g/100 mL in phosphate buffer 0.1 M, pH 7.6) was added and incubated at 37 °C for 30 min. After the incubation 1 mL of 5% trichloroacetic acid was added to the incubated solution to stop the enzyme’s reaction and allowed to set at room temperature for 1 h. Then the solution was filtered by filter paper and the absorption of the filtered solution was measured at 280 nm. Salicylic acid was used as a reference compound (Table 1).

[2] = Inhibition of linoleic acid lipid peroxidation (AAPH); details: % inhibition at 100 μM; pH 7.4, 37 °C
Protocol: Production of conjugated diene hydroperoxide by oxidation of sodium linoleate in an aqueous dispersion is monitored at 234 nm. AAPH is used as a free radical initiator [12, 24]. Ten microlitres of the 16 mM sodium linoleate solution was added to the UV cuvette containing 930 μL of 0.05 M phosphate buffer, pH 7.4 prethermostated at 37 °C. The oxidation reaction was initiated at 37 °C under air by the addition of 40 mM AAPH solution (50 μL). Ten μL of the tested compounds were added in the mixture. Lipid oxidation was measured in the presence of the same level of DMSO. The rate of oxidation at 37 °C was monitored by recording the increase in absorption at 234 nm caused by conjugated diene hydroperoxides. The results were compared to the appropriate standard inhibitor trolox (63%) (Table 1).

[3] = system: acetic acid-induced writhing; test: Antinociceptive screen (writhing test); format: in vivo, Wistar rats; details: i.p. 30 min before 0.6% acetic acid, writhes counted over 30 min; for inhibition in vivo at 0.01 mmol/0.1 kg: Rattus norvegicus, ip, 0.5 h, read-out: % ANA (in vivo analgesic-antinociceptive activity)
Protocol: Anti-inflammatory tests were conducted on Fisher-344 inbred rats of ca. 200 g body weight whereas antinociception and motor and sensory functions after sciatic nerve crash were performed on Wistar rats. Both sexes were used. Females pregnant were excluded. Each group was composed of 6 animals. The animals, which have been bred in our laboratory, were housed under standard conditions and received a diet of commercial food pellets and water ad libitum during the maintenance. Our studies were carried out in accordance with recognised guidelines on animal experimentation.
[…] Controls received the liquid vehicle only. All the in vivo experiments were repeated at least in triplicate and were subjected to statistic analysis using the student’s t-test.
The writhing reflex was used. The test compounds were administered i.p. 30 min prior to the i.p. administration of 1 mL/100 g body weight of 0.6% acetic acid. […] After 5 min, the number of stretches characterized by repeated contractions of the abdominal musculature accompanied by extension of the hind limbs was counted every 5 min for the next 30 min. […] The % antinociceptive activity (a:a) was calculated as: % a:a = (n − n'/n) × 100 (a: a analgesic activity, n average number of writhes of control group, n' average number in the test group).

[4] = Lipophilicity as RM values by RP-TLC; format: physicochemical; details: methanol/water 70/30, 24 °C, average of at least five measurements
Source text: Since lipophilicity is a significant physicochemical property determining distribution, bioavailability, metabolic activity and elimination, we tried to determine experimentally the lipophilicity of the new substances by a RPTLC method as RM values (Table 1) and to compare them with the corresponding theoretically calculated clog p values in n-octanol-buffer. This is considered to be a reliable, fast and convenient method for expressing lipophilicity. Lipophilicity (Table 2), was theoretically calculated as Clog p values in n-octanol-buffer by the CLOGP Programme of Biobyte Corp..
Reversed phase TLC (RP-TLC) was performed on silica gel plates impregnated with 5% (v/v) liquid paraffin in light petroleum ether. The mobile phase was a methanol/water mixture (70/30, v/v). The plates were developed in closed chromatography tanks saturated with the mobile phase at 24 °C. Spots were detected under UV light. RM values were determined from the corresponding Rf values (from five individual measurements) using the equation RM = log [(1/Rf) − 1] (Table 1).

soybean lipoxygenase = biological target: T2, soybean lipoxygenase (Glycine max, UniProt P08170); test: Soybean lipoxygenase inhibition in vitro; format: biochemical; details: for inhibition at 100 µM: read-out: % LOX Inh.
T2 construct: purchased Sigma Chemical, Co. (St. Louis, MO, USA)
T2 sequence (P08170 1-839): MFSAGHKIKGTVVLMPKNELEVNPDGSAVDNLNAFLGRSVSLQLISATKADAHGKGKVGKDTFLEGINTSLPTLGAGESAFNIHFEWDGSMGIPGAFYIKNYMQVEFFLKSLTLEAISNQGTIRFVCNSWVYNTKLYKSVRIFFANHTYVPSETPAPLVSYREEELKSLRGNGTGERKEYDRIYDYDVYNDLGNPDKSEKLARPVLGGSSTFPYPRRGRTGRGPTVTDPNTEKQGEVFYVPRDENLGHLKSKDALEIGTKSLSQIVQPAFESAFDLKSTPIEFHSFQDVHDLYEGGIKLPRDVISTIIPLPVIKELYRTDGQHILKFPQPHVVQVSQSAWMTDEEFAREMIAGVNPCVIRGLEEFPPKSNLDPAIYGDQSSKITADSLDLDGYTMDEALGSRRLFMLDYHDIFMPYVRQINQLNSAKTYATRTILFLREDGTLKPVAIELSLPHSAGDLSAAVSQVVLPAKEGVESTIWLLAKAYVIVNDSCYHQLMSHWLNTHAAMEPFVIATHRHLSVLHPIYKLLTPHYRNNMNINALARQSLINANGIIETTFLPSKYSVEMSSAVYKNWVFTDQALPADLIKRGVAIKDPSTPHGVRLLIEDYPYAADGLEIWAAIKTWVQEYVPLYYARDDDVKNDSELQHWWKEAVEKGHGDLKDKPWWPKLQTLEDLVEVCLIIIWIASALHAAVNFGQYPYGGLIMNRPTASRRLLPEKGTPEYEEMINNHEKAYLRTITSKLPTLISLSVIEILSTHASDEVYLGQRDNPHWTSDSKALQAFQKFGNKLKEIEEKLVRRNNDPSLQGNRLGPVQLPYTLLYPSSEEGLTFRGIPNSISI
Protocol: DMSO solution of the tested compound was incubated with sodium linoleate (0.1 mM) and 0.2 mL of soybean lipoxygenase solution (1/9 × 10^−4 w/v in saline) in buffer pH 9 (tris) and at room temperature. […] The results are given in Table 1 expressed as IC50 values or % inhibition at 100 μM.

[5] = sodium linoleate 0.1 mM, tris buffer pH 9, room temperature, read-out: IC50 μM LOX Inh.
[6] = sodium linoleate 0.1 mM, tris buffer pH 9, room temperature
[7] = bovine albumin substrate, pH 7.6, 37 °C

| SMILES | AAPH % (% inhibition of lipid peroxidation) [2] | inhibition in vivo at 0.01 mmol/0.1 kg [3] | RM (±S.D.) [4] | IC50 [1, 7] | IC50 (soybean lipoxygenase) | other results |
| --- | --- | --- | --- | --- | --- | --- |
| CCOC(=O)c1ccc(N)cc1 [Benzocaine, reference compound] | 25% |  |  |  |  | inhibition at 100 µM [1]: 28% |
| CC(=O)Nc1ccc(OC(=O)/C=C/c2ccccc2)cc1 [Compound 1a, (E) 4-Acetamidophenyl cinnamate] | 95% | 77.3% | −0.725 ± 0.009 |  |  | IC50 (soybean lipoxygenase; [5]): 10 µM; inhibition at 100 µM [1]: 34% |
| O=C(/C=C/c1cccc(Oc2ccccc2)c1)Oc1ccc2ccc(=O)oc2c1 [Compound 2c, (E)-2-Oxo-2H-chromen-7-yl 3-(3-phenoxyphenyl)acrylate] | 93% | 70.4% | 0.444 ±0.008 | 10 µM |  | inhibition at 100 µM (soybean lipoxygenase): 20%; IC50 μM LOX Inh. (soybean lipoxygenase; [6]): low or no activity |
| Cc1cc(=O)oc2cc(OC(=O)/C=C/c3cccc(Oc4ccccc4)c3)ccc12 [Compound 2d, (E)-4-Methyl-2-oxo-2H-chromen-7-yl 3-(3-phenoxyphenyl)acrylate] | 97% | 66% | 0.558 ± 0.040 | 10 µM | 74 µM |  |
| CC(=O)Nc1cccc(OC(=O)/C=C/c2cccc(Oc3ccccc3)c2)c1 [Compound 2e, 3-Acetamidophenyl (E)-3-(3-phenoxyphenyl)acrylate] | 60% | 98.1% | 0.407 ± 0.015 |  |  | % ANA (in vivo analgesic-antinociceptive activity) ([3]; 0.01 mmol/0.1 kg): 98.1 ** %; IC50 (soybean lipoxygenase; [5]): 0.34 µM |
| O=C(/C=C/c1cccc(Oc2ccccc2)c1)Nc1ccc(O)cc1 [Compound 2f, (E)-N-(4-Hydroxyphenyl)-3-(3-phenoxyphenyl)acrylamide] | 100% |  | −0.116 ± 0.003 | 26 µM |  | IC50 μM LOX Inh. (soybean lipoxygenase; [6]): low or no activity |
| O=C(/C=C/c1cccc(Oc2ccccc2)c1)Nc1cccc(OC(=O)/C=C/c2cccc(Oc3ccccc3)c2)c1 [Compound 2g] | 60% |  | 1.092 ± 0.044 | 43.6 µM | 72 µM |  |
| CCOC(=O)c1ccc(NC(=O)/C=C/c2cccc(Oc3ccccc3)c2)cc1 [Compound 2h, (E)-Ethyl 4-(3-(3-phenoxyphenyl)acrylamido)benzoate] | 64% |  | 0.399 ± 0.045 | 50 µM | 100 µM |  |
| CC(=O)Nc1ccc(OC(=O)/C=C/c2ccc(OCc3ccc(Br)cc3)cc2)cc1 [Compound 3a, (E)-4-Acetamidophenyl 3-(4-((4-bromobenzyl)oxy)phenyl)acrylate] | 96% | 52% | −0.24 ± 0.009 | 100 µM | 55 µM |  |
| Cc1cc(=O)oc2cc(OC(=O)/C=C/c3ccc(OCc4ccc(Br)cc4)cc3)ccc12 [Compound 3b, (E)-4-Methyl-2-oxo-2H-chromen-7-yl-3-(4-((4-bromobenzyl)oxy)phenyl)acrylate] | 90% |  | −0.602 ± 0.01 | 5 µM | 50 µM |  |
| CC(=O)Nc1ccc(OC(=O)/C=C/c2cccs2)cc1 [Compound 4a, (E)-4-Acetamidophenyl 3-(thiophen-2-yl)acrylate] | 95% |  | −0.826 ± 0.05 |  |  | inhibition at 100 µM (soybean lipoxygenase): 16%; IC50 μM LOX Inh. (soybean lipoxygenase; [6]): low or no activity; IC50 μM Trypsin Inh. [1, 7]: low or no activity |
| O=c1ccc2ccc(O)cc2o1 [Compound 7-HC, 7-hydroxycoumarin, reference compound] | 92% |  |  | 100 µM |  |  |
| O=c1ccc2ccccc2o1 [Coumarin, reference compound] |  |  |  |  |  | inhibition at 100 µM [1]: 13% |
| Cc1cc(=O)oc2cc(O)ccc12 [Hymechromone, 4-methyl-7-hydroxycoumarin, reference compound] | 93% |  |  |  |  | inhibition at 100 µM [1]: 60% |
| O=C(O)/C=C/c1ccccc1 [I] | 78% | 60.2% | −0.485 ± 0.044 | 55 µM | 56 µM |  |
| Cc1c(C)c2c(c(C)c1O)CCC(C)(C(=O)O)O2 (stereo not shown) [Trolox, reference compound] | 63% |  |  |  |  |  |
| Nc1cccc(O)c1 [m-AP, m-aminophenol, reference compound] | 95% |  |  |  |  | % Trypsin Inh. [1]: 90% |
| Nc1ccc(O)cc1 [p-AP, p-aminophenol, reference compound] | 99% |  |  |  |  | % Trypsin Inh. [1]: 87% |
